According to US8293768B2, “Organic compounds” (Novartis AG, priority 2006, dated 2012):
pIC50: −log10 of the molar value.

Legend:
[1] = biological target: T1, stearoyl-CoA desaturase (SCD1) (Mus musculus, UniProt P13516); assay: SCD microsomal assay: release of 3H2O from [9,10-3H]stearoyl-CoA in mouse liver microsomes; assay type: biochemical; conditions: 15 min incubation at 25° C.
T1 construct: Reactions are started by adding 50 μL of microsomes (1.25 mg/mL); from tissue; host or cells: liver microsomes of male ICR outbred mice on a high-carbohydrate, low fat diet
T1 sequence (P13516 1-355): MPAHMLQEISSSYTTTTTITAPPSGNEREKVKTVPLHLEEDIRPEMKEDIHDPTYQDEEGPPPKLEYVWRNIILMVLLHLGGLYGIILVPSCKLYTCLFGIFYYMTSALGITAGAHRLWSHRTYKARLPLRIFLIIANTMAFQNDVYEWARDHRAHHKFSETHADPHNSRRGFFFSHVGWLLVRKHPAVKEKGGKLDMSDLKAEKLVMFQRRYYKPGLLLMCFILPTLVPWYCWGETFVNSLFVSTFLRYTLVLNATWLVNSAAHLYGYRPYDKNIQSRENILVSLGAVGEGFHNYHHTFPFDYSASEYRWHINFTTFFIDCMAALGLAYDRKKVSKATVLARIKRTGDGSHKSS
Excerpt: The identification of compounds of the invention as SCD inhibitors was readily accomplished using the SCD enzyme and microsomal assay procedure described in Shanklin J. and Summerville C., Proc. Natl. Acad. Sci. USA (1991), Vol. 88, pp. 2510-2514.
Measuring Stearoyl-CoA Desaturase Inhibition Activity of a Test Compound Using Mouse Liver Microsomes
The identification of compounds of the invention as SCD inhibitors was readily accomplished using the SCD microsomal assay procedure described in Shanklin J. and Summerville C., Proc. Natl. Acad. Sci. USA (1991), Vol. 88, pp. 2510-2514.
Male ICR outbread mice, on a high-carbohydrate, low fat diet, under light halothane (15% in mineral oil) anesthesia are sacrificed by exsanguination during periods of high enzyme activity. Livers are immediately rinsed with cold 0.9% NaCl solution, weighed and minced with scissors. All procedures are performed at 4° C. unless specified otherwise. Livers are homogenized in a solution (1/3 w/v) containing 0.25 M sucrose, 62 mM potassium phosphate buffer (pH 7.0), 0.15 M KCl, 15 mM N-acetyleysteine, 5 mM MgCl2, and 0.1 mM EDTA using 4 strokes of a Potter-Elvehjem tissue homogenizer. The homogenate is centrifuged at 10,400×g for 20 min to eliminate mitochondria and cellular debris. The supernatant is filtered through a 3-layer cheesecloth and centrifuged at 105,000×g for 60 min. The microsomal pellet is gently resuspended in the same homogenization solution with a small glass/teflon homogenizer and stored at −70° C. The absence of mitochondrial contamination is enzymatically assessed. The protein concentration is measured using bovine serum albumin as the standard.
Desaturase activity is measured as the release of ^3H2O from [9,10-^3H]stearoyl-CoA. Reactions per assay point conditions are as follows: 2 μL 1.5 mM stearoyl-CoA, 0.25 μL 1 mCi/mL ^3H stearoyl CoA, 10 μL 20 mM NADH, 36.75 μL 0.1 M PK buffer (K2HPO4/NaH2PO4, pH 7.2). The test compound or control solution is added in a 1 μL volume. Reactions are started by adding 50 μL of microsomes (1.25 mg/mL). The plates are mixed and after 15 min incubation on a heating block (25° C.), the reactions are stopped by the addition of 10 μL 60% PCA. An aliquot of 100 μL is then transferred to a filter plate pretreated with charcoal and the plate centrifuged at 4000 rpm for 1 minute. The flow through containing the ^3H2O released by the SCD1 desaturation reaction is added to scintillation fluid and the radioactivity measured in a Packard TopCount. The data is analysed to identify the IC50 for test compounds and reference compounds. […] The activity was defined in terms of % SCD enzyme activity remaining at the desired concentration of the test compound or as the IC50 concentration. The IC50 (affinity) of the example compounds toward the stearoyl-CoA desaturase is comprised between around […] and 0.0001 μM or between around 5 μM and 0.0001 μM or between around 1 μM and 0.0001 μM.

SMILES	pIC50 [1]	melting point
CCN1CCN(c2nc(C)c(C(=O)NCc3cccnc3)s2)C1=O [Example 9.39, 2-(3-ethyl-2-oxoimidazolidin-1-yl)-4-methyl-N-(pyridin-3-ylmethyl)thiazole-5-carboxamide]	6.91	163 to 164 °C
Cc1nc(-n2ccn(Cc3ccc(C(F)(F)F)cc3)c2=O)sc1C(=O)NCc1cccnc1 [Example 17.3, 4-methyl-2-(2-oxo-3-(4-(trifluoromethyl)benzyl)-2,3-dihydro-1H-imidazol-1-yl)-N-(pyridin-3-ylmethyl)thiazole-5-carboxamide]	7.92	163 to 164 °C
Cc1nc(-n2cnn(CC(=O)Nc3ccc(Cl)cc3)c2=O)sc1C(=O)NCc1cccnc1 [Example 19.10, 2-(1-(2-(4-chlorophenylamino)-2-oxoethyl)-5-oxo-1H-1,2,4-triazol-4(5H)-yl)-4-methyl-N-(pyridin-3-ylmethyl)thiazole-5-carboxamide]	6.24	255 to 256 °C
CCOC(=O)c1ccc(CN2CCN(c3nc(C)c(C(=O)NCc4ccccc4)s3)C2=O)cc1 [Example 23.2, ethyl 4-((3-(5-(benzylcarbamoyl)-4-methylthiazol-2-yl)-2-oxoimidazolidin-1-yl)methyl)benzoate]	7.21	118 to 120 °C
Cc1nc(N2CCN(CC3CCCCO3)C2=O)sc1C(=O)NCc1ccccc1 (stereo not shown) [Example 23.6, N-benzyl-4-methyl-2-(2-oxo-3-((tetrahydro-2H-pyran-2-yl)methyl)imidazolidin-1-yl)thiazole-5-carboxamide]	6.31	
O=C(NCc1cccnc1)c1sc(N2CCN(Cc3ccc(F)cc3)C2=O)nc1C(F)(F)F [Example 26.1, 2-(3-(4-fluorobenzyl)-2-oxoimidazolidin-1-yl)-N-(pyridin-3-ylmethyl)-4-(trifluoromethyl)thiazole-5-carboxamide]	7.41	161 to 162 °C
Cc1nc(N2CCN(Cc3ccccc3)C2=N)sc1C(=O)NCc1ccccc1 [Example 27.3, N-benzyl-2-(3-benzyl-2-iminoimidazolidin-1-yl)-4-methylthiazole-5-carboxamide]	7.60	125 to 126 °C
Cc1nc(N2CCN(Cc3ccccn3)C2=O)sc1C(=O)NCc1cccnc1 [Example 32.8, 4-methyl-2-(2-oxo-3-(pyridin-2-ylmethyl)imidazolidin-1-yl)-N-(pyridin-3-ylmethyl)thiazole-5-carboxamide]	6.57	58 to 61 °C
Cc1nc(N2CCN(Cc3ccc(C(F)(F)F)cc3)C2=O)sc1-c1ccno1 [Example 38.1, 1-(5-(isoxazol-5-yl)-4-methylthiazol-2-yl)-3-(4-(trifluoromethyl)benzyl)imidazolidin-2-one]	5.91	153 to 154 °C
Cc1noc(-c2sc(N3CCN(Cc4ccc(C(F)(F)F)cc4)C3=O)nc2C)n1 [Example 44, 1-(4-methyl-5-(3-methyl-1,2,4-oxadiazol-5-yl)thiazol-2-yl)-3-(4-(trifluoromethyl)benzyl)imidazolidin-2-one]	6.82	163 to 164 °C
Cc1nc(N2CCN(Cc3ccc(C(F)(F)F)cc3)C2=O)sc1Br [Example 45, 1-(5-bromo-4-methylthiazol-2-yl)-3-(4-(trifluoromethyl)benzyl)imidazolidin-2-one]	6.34	107 to 108 °C
Cc1cc(N2CCN(CCOc3ccccc3)C2=O)sc1C(=O)NCc1cccnc1 [Example 55, 3-methyl-5-(2-oxo-3-(2-phenoxyethyl)imidazolidin-1-yl)-N-(pyridin-3-ylmethyl)thiophene-2-carboxamide]		78 to 80 °C
Cc1cc(N2CCN(CC(=O)c3ccccc3)C2=O)sc1C(=O)NCc1cccnc1 [Example 55.1, 3-methyl-5-(2-oxo-3-(2-oxo-2-phenylethyl)imidazolidin-1-yl)-N-(pyridin-3-ylmethyl)thiophene-2-carboxamide]		174 to 176 °C
Cc1cc(N2CCN(Cc3ccc(C(N)=O)cc3)C2=O)sc1C(=O)NCc1cccnc1 [Example 55.2, 5-(3-(4-carbamoylbenzyl)-2-oxoimidazolidin-1-yl)-3-methyl-N-(pyridin-3-ylmethyl)thiophene-2-carboxamide]		188 °C (dec.)
Cc1cc(N2CCN(Cc3ccc(F)cc3)C2=O)sc1C(=O)NCc1nc2ccccc2[nH]1 [Example 55.4, N-((1H-benzo[d]imidazol-2-yl)methyl)-5-(3-(4-fluorobenzyl)-2-oxoimidazolidin-1-yl)-3-methylthiophene-2-carboxamide]		265 to 267 °C
Cc1cc(N2CCN(Cc3ccc(F)cc3)C2=O)sc1C(=O)NCc1cccs1 [Example 55.5, 5-(3-(4-fluorobenzyl)-2-oxoimidazolidin-1-yl)-3-methyl-N-(thiophen-2-ylmethyl)thiophene-2-carboxamide]		128 to 131 °C
Cc1cc(N2CCN(Cc3ccc(F)cc3)C2=O)sc1C(=O)NC1Cc2ccccc2C1 [Example 55.8, N-(2,3-dihydro-1H-inden-2-yl)-5-(3-(4-fluorobenzyl)-2-oxoimidazolidin-1-yl)-3-methylthiophene-2-carboxamide]	7.57	
Cc1cc(N2CCN(Cc3ccc(C(=O)O)cc3)C2=O)sc1C(=O)NCc1cccnc1 [Example 56, 4-((3-(4-methyl-5-(pyridin-3-ylmethylcarbamoyl)thiophen-2-yl)-2-oxoimidazolidin-1-yl)methyl)benzoic acid]		120 °C (dec.)
Cc1cc(N2CCN(CC(O)c3ccccc3)C2=O)sc1C(=O)NCc1cccnc1 (stereo not shown) [Example 57, 5-(3-(2-hydroxy-2-phenylethyl)-2-oxoimidazolidin-1-yl)-3-methyl-N-(pyridin-3-ylmethyl)thiophene-2-carboxamide]		75 °C (dec.)
Cc1cc(N2CCN(Cc3ccc(N)cc3)C2=O)sc1C(=O)NCc1cccnc1 [Example 58, 5-(3-(4-aminobenzyl)-2-oxoimidazolidin-1-yl)-3-methyl-N-(pyridin-3-ylmethyl)thiophene-2-carboxamide]		118 to 120 °C
Cc1cc(N2CCN(Cc3ccc(F)cc3)C2=O)sc1-c1nc(Cc2ccccc2)c[nH]1 [Example 60, 1-(5-(4-benzyl-1H-imidazol-2-yl)-4-methylthiophen-2-yl)-3-(4-fluorobenzyl)imidazolidin-2-one]	6.37	
